From ChEMBL document CHEMBL1201862, “PubChem BioAssay data set” (2004)
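Five compound concentrations were applied to cells in 96-well plates for 48 hours; endpoints were derived by simple linear interpolation of the resulting dose-response curve. GI50 = concentration required for 50% inhibition of growth.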 Active and inactive are the calls of the source. No stated cut-off is given here; in the data, active = GI50 up to about 1.1 µM and inactive = higher.

How the values were obtained:
Test in all cases: inhibition of tumour cell growth, NCI panel, 48 h
M19-MEL = system: M19-MEL
KM12 = system: KM12
SN12C = system: SN12C
MDA-N = system: MDA-N
SNB-75 = system: SNB-75
MDA-MB-435 = system: MDA-MB-435
BT-549 = system: BT-549
PC-3 = system: PC-3
TK-10 = system: TK-10
CAKI-1 = system: CAKI-1
NCI-H23 = system: NCI-H23
786-0 = system: 786-0
HCC 2998 = system: HCC 2998
COLO 205 = system: COLO 205
DLD-1 = system: DLD-1
NCI-H522 = system: NCI-H522
DMS-273 = system: DMS-273
HCT-15 = system: HCT-15
OVCAR-3 = system: OVCAR-3
M14 = system: M14
CCRF-CEM = system: CCRF-CEM
SR = system: SR
SK-OV-3 = system: SK-OV-3
HL-60 = system: HL-60
XF498 = system: XF498
HOP-18 = system: HOP-18
EKVX = system: EKVX
OVCAR-8 = system: OVCAR-8
RXF 631 = system: RXF 631
SF-539 = system: SF-539
NCI-H226 = system: NCI-H226
RPMI-8226 = system: RPMI-8226
NCI/ADR-RES = system: NCI/ADR-RES
SK-MEL-2 = system: SK-MEL-2
HT-29 = system: HT-29
HCT-116 = system: HCT-116
LOX IMVI = system: LOX IMVI
IGROV-1 = system: IGROV-1
MOLT-4 = system: MOLT-4
T47D = system: T47D
U-251 = system: U-251
Hs-578T = system: Hs-578T
UACC-62 = system: UACC-62
LXFL 529 = system: LXFL 529
NCI-H460 = system: NCI-H460
SF-295 = system: SF-295
Malme-3M = system: Malme-3M
HOP-92 = system: HOP-92
SNB-19 = system: SNB-19
SNB-78 = system: SNB-78
MCF7 = system: MCF7
UO-31 = system: UO-31
SF-268 = system: SF-268
MDA-MB-231 = system: MDA-MB-231
DU-145 = system: DU-145
ACHN = system: ACHN
SK-MEL-28 = system: SK-MEL-28
KM-20L2 = system: KM-20L2
A498 = system: A498
UACC-257 = system: UACC-257
A549 = system: A549
HOP-62 = system: HOP-62
SK-MEL-5 = system: SK-MEL-5
OVCAR-5 = system: OVCAR-5
SW-620 = system: SW-620
RXF 393 = system: RXF 393
OVCAR-4 = system: OVCAR-4
K562 = system: K562
DMS-114 = system: DMS-114

Structure (SMILES): CCCCCCCCCCC(O)C1CCC(C(O)CCC(O)C2CCC(CCCCCCC[C@H](O)CC3=C[C@@H](C)OC3=O)O2)O1 (stereo partly specified)
- GI50 (M19-MEL): > 76.4 µM (inactive)
- GI50 (KM12): 6.1 µM (inactive)
- GI50 (SN12C): > 48.9 µM (inactive)
- GI50 (MDA-N): > 10 µM (inactive)
- GI50 (SNB-75): 6.9 µM (inactive)
- GI50 (MDA-MB-435): 6.28 µM (inactive)
- GI50 (BT-549): 0.001 µM (active)
- GI50 (PC-3): > 10 µM (inactive)
- GI50 (TK-10): 30.3 µM (inactive)
- GI50 (CAKI-1): > 70.8 µM (inactive)
- GI50 (NCI-H23): 0.01 µM (active)
- GI50 (786-0): 17.3 µM (inactive)
- GI50 (HCC 2998): 97.5 µM (inactive)
- GI50 (COLO 205): > 100 µM (inactive)
- GI50 (DLD-1): 54.8 µM (inactive)
- GI50 (NCI-H522): 1.34 µM (inactive)
- GI50 (DMS-273): 41.6 µM (inactive)
- GI50 (HCT-15): > 53.1 µM
- GI50 (OVCAR-3): 18.3 µM (inactive)
- GI50 (M14): > 100 µM (inactive)
- GI50 (CCRF-CEM): 3.48 µM (inactive)
- GI50 (SR): 0.01 µM (active)
- GI50 (SK-OV-3): 30.3 µM (inactive)
- GI50 (HL-60): 0.01 µM (active)
- GI50 (XF498): 28.2 µM (inactive)
- GI50 (HOP-18): > 100 µM (inactive)
- GI50 (EKVX): 34.8 µM (inactive)
- GI50 (OVCAR-8): 10.2 µM (inactive)
- GI50 (RXF 631): > 46.2 µM (inactive)
- GI50 (SF-539): 26.8 µM (inactive)
- GI50 (NCI-H226): 2.64 µM (inactive)
- GI50 (RPMI-8226): 0.855 µM (active)
- GI50 (NCI/ADR-RES): 0.957 µM (active)
- GI50 (SK-MEL-2): > 100 µM (inactive)
- GI50 (HT-29): > 100 µM (inactive)
- GI50 (HCT-116): < 0.033 µM (active)
- GI50 (LOX IMVI): 14.6 µM (inactive)
- GI50 (IGROV-1): 31.5 µM (inactive)
- GI50 (MOLT-4): 2.02 µM (inactive)
- GI50 (T47D): > 10 µM (inactive)
- GI50 (U-251): 10.2 µM (inactive)
- GI50 (Hs-578T): > 10 µM (inactive)
- GI50 (UACC-62): 4.02 µM (inactive)
- GI50 (LXFL 529): 14.6 µM (inactive)
- GI50 (NCI-H460): > 22.9 µM (inactive)
- GI50 (SF-295): 0.01 µM (active)
- GI50 (Malme-3M): 29.6 µM (inactive)
- GI50 (HOP-92): 11.6 µM (inactive)
- GI50 (SNB-19): 3.66 µM (inactive)
- GI50 (SNB-78): 14.9 µM (inactive)
- GI50 (MCF7): 2 µM (inactive)
- GI50 (UO-31): 2.25 µM (inactive)
- GI50 (SF-268): 9.23 µM (inactive)
- GI50 (MDA-MB-231): > 10 µM (inactive)
- GI50 (DU-145): > 10 µM (inactive)
- GI50 (ACHN): 1.2 µM (inactive)
- GI50 (SK-MEL-28): > 51.9 µM (inactive)
- GI50 (KM-20L2): > 100 µM (inactive)
- GI50 (A498): 22.2 µM (inactive)
- GI50 (UACC-257): < 0.0169 µM (active)
- GI50 (A549): 15.1 µM (inactive)
- GI50 (HOP-62): > 40.6 µM (inactive)
- GI50 (SK-MEL-5): 0.01 µM (active)
- GI50 (OVCAR-5): > 100 µM (inactive)
- GI50 (SW-620): > 51.4 µM (inactive)
- GI50 (RXF 393): 5.81 µM (inactive)

Structure (SMILES): COC(=O)C(=O)OC1(C(C)=O)CC2(c3ccccc3)OC1(c1ccccc1)c1ccccc12 (stereo unspecified)
- GI50 (M19-MEL): 16.9 µM (inactive)
- GI50 (SN12C): 15 µM (inactive)
- GI50 (OVCAR-4): 20.2 µM (inactive)
- GI50 (SNB-75): 32.7 µM (inactive)
- GI50 (K562): 27.7 µM (inactive)
- GI50 (TK-10): 29.4 µM (inactive)
- GI50 (CAKI-1): 17.9 µM (inactive)
- GI50 (NCI-H23): 17.2 µM (inactive)
- GI50 (786-0): 13.5 µM (inactive)
- GI50 (HCC 2998): 16.7 µM (inactive)
- GI50 (COLO 205): 15.8 µM (inactive)
- GI50 (DLD-1): 18.6 µM (inactive)
- GI50 (NCI-H522): 17.7 µM (inactive)
- GI50 (DMS-273): 15.2 µM (inactive)
- GI50 (HCT-15): 16.9 µM
- GI50 (OVCAR-3): 13.9 µM (inactive)
- GI50 (M14): 17.9 µM (inactive)
- GI50 (CCRF-CEM): 33.6 µM (inactive)
- GI50 (SR): 28.1 µM (inactive)
- GI50 (SK-OV-3): 29.9 µM (inactive)
- GI50 (HL-60): 33.5 µM (inactive)
- GI50 (XF498): 16.4 µM (inactive)
- GI50 (HOP-18): 52.8 µM (inactive)
- GI50 (EKVX): 20.7 µM (inactive)
- GI50 (OVCAR-8): 15.9 µM (inactive)
- GI50 (RXF 631): 23.1 µM (inactive)
- GI50 (SF-539): 13 µM (inactive)
- GI50 (NCI-H226): 17.3 µM (inactive)
- GI50 (RPMI-8226): 20.8 µM (inactive)
- GI50 (HT-29): 17 µM (inactive)
- GI50 (HCT-116): 16.2 µM (inactive)
- GI50 (LOX IMVI): 15.7 µM (inactive)
- GI50 (IGROV-1): 16.3 µM (inactive)
- GI50 (DMS-114): 15.1 µM (inactive)
- GI50 (MOLT-4): 22 µM (inactive)
- GI50 (U-251): 16.4 µM (inactive)
- GI50 (UACC-62): 14.9 µM (inactive)
- GI50 (LXFL 529): 19.8 µM (inactive)
- GI50 (NCI-H460): 18.4 µM (inactive)
- GI50 (SF-295): 14.5 µM (inactive)
- GI50 (Malme-3M): 19.1 µM (inactive)
- GI50 (HOP-92): 14 µM (inactive)
- GI50 (SNB-19): 19.9 µM (inactive)
- GI50 (SNB-78): 27.8 µM (inactive)
- GI50 (UO-31): 14.2 µM (inactive)
- GI50 (SF-268): 20 µM (inactive)
- GI50 (KM-20L2): 15.6 µM (inactive)
- GI50 (A498): 18.6 µM (inactive)
- GI50 (UACC-257): 16.2 µM (inactive)
- GI50 (A549): 14.8 µM (inactive)
- GI50 (HOP-62): 18.4 µM (inactive)
- GI50 (SK-MEL-5): 15 µM (inactive)
- GI50 (OVCAR-5): 26.1 µM (inactive)
- GI50 (SW-620): 16.4 µM (inactive)
- GI50 (RXF 393): 15.4 µM (inactive)
